The text below walks through data of ChEMBL document CHEMBL1201862, “PubChem BioAssay data set” (2004).

Active and inactive are the calls of the source.

A word on the EC50: it is the concentration that produces a half-maximal response. A word on the AC50: it is the midpoint of the concentration-response curve, whichever way the signal moves. What is called CC50 is the concentration that lowers cell viability or growth by half. By IC50 is commonly meant the point on the concentration scale where inhibition reaches its midpoint.

The target of assay [1] is T1, Heat shock factor protein 1 (Mus musculus, UniProt P38532).
T1 sequence (P38532 whole entry): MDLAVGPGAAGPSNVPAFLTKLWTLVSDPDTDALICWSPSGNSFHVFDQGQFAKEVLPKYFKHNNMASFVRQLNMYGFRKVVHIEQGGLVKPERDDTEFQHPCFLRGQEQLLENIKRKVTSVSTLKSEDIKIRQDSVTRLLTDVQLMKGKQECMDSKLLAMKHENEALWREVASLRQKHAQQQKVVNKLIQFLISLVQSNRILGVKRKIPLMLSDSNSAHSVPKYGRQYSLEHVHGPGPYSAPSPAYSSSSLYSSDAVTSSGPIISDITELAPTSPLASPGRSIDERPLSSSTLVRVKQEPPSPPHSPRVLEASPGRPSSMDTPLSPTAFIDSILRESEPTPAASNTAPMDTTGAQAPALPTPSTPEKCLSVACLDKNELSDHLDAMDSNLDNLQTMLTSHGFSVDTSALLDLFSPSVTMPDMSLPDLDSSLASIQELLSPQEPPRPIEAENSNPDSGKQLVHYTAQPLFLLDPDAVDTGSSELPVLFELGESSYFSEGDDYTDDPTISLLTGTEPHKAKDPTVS
In words: inhibition of MG132-induced HSE-luciferase signal, confirmation, cell-based, NIH3T3, luminescence, dose retest (AID 2382).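 Note: NIH3T3 fibroblasts with HSF1-driven luciferase reporter stressed by proteasome inhibitor MG132; luminescence from HSF1-driven luciferase expression after 8 hours of MG132 stress.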 It counts as functional.

Assay [2] concerns the target T2, Short transient receptor potential channel 4 (Mus musculus, UniProt Q9QUQ5).
T2 sequence (Q9QUQ5 whole entry): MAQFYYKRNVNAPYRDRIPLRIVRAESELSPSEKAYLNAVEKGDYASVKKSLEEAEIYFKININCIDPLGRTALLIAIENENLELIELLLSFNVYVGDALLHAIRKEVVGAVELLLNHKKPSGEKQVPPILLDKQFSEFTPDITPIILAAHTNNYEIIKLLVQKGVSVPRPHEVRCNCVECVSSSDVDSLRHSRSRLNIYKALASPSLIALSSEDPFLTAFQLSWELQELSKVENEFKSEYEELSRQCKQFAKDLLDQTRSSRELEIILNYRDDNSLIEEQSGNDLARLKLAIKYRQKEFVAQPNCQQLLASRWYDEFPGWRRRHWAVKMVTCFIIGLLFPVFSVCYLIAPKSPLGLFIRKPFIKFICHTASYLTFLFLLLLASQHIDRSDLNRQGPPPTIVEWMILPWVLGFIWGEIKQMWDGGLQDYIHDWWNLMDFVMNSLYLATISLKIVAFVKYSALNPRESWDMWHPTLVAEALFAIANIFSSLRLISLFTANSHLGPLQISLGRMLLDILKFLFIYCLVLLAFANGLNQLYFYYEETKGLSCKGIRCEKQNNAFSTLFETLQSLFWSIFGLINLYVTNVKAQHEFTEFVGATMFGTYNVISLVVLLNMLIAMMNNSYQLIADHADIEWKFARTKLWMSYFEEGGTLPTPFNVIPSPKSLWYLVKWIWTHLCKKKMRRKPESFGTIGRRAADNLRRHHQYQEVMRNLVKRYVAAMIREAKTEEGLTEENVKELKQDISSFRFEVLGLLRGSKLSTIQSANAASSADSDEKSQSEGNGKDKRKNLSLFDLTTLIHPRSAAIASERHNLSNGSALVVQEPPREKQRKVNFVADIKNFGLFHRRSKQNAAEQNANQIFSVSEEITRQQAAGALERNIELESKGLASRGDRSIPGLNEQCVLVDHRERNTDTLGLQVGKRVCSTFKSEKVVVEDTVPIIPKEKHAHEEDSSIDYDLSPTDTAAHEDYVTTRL
In words: TRPC4 positive allosteric modulators, dose response, cell-based, HEK293 TRPC4/mu-opioid, Fluo-4 calcium, EC20 DAMGO (AID 434941).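 Note: HEK293 cells coexpressing TRPC4 and mu opioid receptor stimulated by EC20 DAMGO.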 Format: functional.

A further assay has as its system HEK293. In words: inhibitors of LMP1-driven NF-kB reporter, dose response, cell-based, HEK293, luciferase, cherry-pick (AID 588343). Conditions: Homo sapiens. It counts as functional.
The target of the next assay is Integrin alpha-4 (Homo sapiens, UniProt P13612). In words: VLA-4 integrin allosteric ligands, SAR follow-up, cell-based, LIBS antibody binding, flow cytometry (AID 488791). It counts as functional. In general terms: Flow cytometry measures light scatter and fluorescence of single cells or particles in a stream.
Integrin alpha-4, sequence (P13612 whole entry): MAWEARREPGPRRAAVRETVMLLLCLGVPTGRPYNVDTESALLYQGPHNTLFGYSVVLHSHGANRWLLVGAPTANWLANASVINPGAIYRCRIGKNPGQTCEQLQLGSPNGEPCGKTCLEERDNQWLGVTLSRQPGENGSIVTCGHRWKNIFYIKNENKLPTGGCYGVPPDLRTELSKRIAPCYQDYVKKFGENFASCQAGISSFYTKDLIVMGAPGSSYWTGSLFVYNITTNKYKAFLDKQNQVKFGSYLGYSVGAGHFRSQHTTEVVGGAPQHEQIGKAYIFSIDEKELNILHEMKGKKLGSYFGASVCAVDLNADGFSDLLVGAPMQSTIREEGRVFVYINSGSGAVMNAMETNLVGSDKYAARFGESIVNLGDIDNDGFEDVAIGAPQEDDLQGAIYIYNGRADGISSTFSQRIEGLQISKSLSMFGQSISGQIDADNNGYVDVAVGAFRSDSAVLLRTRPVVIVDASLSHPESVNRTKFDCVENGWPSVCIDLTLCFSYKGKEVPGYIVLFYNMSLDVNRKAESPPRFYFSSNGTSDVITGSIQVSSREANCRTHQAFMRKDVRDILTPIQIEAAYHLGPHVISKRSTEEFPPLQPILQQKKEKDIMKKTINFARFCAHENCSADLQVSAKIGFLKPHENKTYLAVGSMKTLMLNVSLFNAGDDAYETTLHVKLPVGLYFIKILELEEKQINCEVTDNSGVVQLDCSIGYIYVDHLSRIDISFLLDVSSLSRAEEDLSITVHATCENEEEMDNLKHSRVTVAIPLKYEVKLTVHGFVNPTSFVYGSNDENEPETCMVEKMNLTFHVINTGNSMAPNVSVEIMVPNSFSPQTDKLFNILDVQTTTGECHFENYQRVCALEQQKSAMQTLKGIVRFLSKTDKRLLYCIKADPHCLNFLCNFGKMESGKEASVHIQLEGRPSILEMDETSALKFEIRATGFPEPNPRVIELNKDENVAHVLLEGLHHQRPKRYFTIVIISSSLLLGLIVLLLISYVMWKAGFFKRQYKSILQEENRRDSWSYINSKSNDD
The target in assay [3] is T3, Microphthalmia-associated transcription factor (Homo sapiens, UniProt O75030).
T3 sequence (O75030 whole entry): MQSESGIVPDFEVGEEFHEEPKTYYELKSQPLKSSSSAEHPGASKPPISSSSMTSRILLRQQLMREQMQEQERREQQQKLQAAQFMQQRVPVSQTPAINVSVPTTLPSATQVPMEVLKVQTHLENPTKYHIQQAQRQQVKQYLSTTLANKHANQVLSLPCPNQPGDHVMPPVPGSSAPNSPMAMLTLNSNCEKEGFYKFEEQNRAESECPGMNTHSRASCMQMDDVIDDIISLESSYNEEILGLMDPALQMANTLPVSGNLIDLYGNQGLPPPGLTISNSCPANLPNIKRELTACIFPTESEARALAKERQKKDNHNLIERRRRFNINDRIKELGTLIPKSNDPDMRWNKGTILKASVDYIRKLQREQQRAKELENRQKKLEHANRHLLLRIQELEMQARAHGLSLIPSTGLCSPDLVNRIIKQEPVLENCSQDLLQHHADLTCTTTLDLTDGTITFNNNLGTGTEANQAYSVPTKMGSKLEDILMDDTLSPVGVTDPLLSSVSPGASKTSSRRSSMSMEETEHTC
In words: TRPM1 promoter luciferase signal decrease, dose response, MITF inhibitor project, cell-based, SK-MEL-5, cherry-picked, set 3 (AID 493073).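 Note: SK-MEL-5 melanoma cells with luciferase driven by the MITF target TRPM1 promoter.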 It counts as functional.

Assay [4] has as its system A-375. In words: MITF: Counter assay: A375 proliferation Measured in Cell-Based System Using Plate Reader - 2084-03_Inhibitor_Dose_DryPowder_Activity. [Related pubchem assays (depositor defined):AID488944]. Format: functional. Conditions: Homo sapiens.
In another assay the test system is Vero. In words: cells. Format: functional. Conditions: Chlorocebus sabaeus.
Assay [5] concerns A-375. In words: A375 melanoma cell viability reduction, dose response, counter-screen for MITF modulator project, cherry-pick samples, set 2 (AID 540335). It counts as functional, cell-based. Conditions: Homo sapiens.
The target of assay [6] is Voltage-dependent T-type calcium channel subunit alpha-1H (Homo sapiens, UniProt O95180). In words: Cav3.2 T-type channel inhibitors, cell-based, synthetic library set 1, calcium flux (AID 493022). It counts as functional.
The next assay concerns the target T4, Caspase-3 (Homo sapiens, UniProt P42574).
T4 sequence (P42574 whole entry): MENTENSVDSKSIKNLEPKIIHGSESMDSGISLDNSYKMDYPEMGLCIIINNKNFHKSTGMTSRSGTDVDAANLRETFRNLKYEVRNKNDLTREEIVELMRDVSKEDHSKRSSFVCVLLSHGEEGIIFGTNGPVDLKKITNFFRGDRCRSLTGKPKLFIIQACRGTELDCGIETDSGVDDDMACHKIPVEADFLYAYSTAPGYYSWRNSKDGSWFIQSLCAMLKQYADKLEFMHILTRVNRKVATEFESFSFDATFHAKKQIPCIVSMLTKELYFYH
In words: procaspase-3 activators, dose response, biochemical, absorbance (AID 489014).

In the next assay the target is Caspase-7 (Homo sapiens, UniProt P55210). In words: procaspase-7 activators, dose response, counter-screen for procaspase-3 activator project, biochemical, absorbance (AID 489013). A general note: Counterscreens check selectivity or assay interference.
Caspase-7, sequence (P55210 24-198 limits assumed): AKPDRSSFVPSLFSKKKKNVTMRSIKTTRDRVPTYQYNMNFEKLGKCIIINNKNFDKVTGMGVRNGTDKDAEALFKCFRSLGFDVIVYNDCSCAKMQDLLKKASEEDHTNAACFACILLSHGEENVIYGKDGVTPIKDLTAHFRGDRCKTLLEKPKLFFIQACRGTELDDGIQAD
Caspase-7, sequence (P55210 207-303 limits assumed): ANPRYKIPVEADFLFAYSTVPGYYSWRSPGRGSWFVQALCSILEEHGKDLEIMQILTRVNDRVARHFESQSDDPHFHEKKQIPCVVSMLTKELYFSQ
For assay [7], the target named is G-protein coupled receptor 35 (Homo sapiens, UniProt Q9HC97). In words: SAR analysis of Antagonists of the GPR35 Receptor using an Image-Based Assay - Set 5. [Related pubchem assays (depositor defined):AID2058, AID2079]. It counts as functional.
G-protein coupled receptor 35, sequence (Q9HC97 whole entry): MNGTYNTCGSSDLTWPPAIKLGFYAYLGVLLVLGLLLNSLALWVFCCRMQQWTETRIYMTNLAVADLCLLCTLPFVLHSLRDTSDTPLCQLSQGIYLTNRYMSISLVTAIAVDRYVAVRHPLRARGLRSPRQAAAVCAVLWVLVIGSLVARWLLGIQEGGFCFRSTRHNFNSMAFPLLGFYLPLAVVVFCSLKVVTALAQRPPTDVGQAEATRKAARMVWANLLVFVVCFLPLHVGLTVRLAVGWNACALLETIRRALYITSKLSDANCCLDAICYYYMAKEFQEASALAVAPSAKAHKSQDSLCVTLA
For assay [8], the target named is G-protein coupled receptor 55 (Homo sapiens, UniProt Q9Y2T6). In words: SAR Analysis of Selective Antagonists of GPR55 using an Image-Based Assay - Set 3. [Related pubchem assays (depositor defined):AID2058, AID2079]. Format: functional.
G-protein coupled receptor 55, sequence (Q9Y2T6 whole entry): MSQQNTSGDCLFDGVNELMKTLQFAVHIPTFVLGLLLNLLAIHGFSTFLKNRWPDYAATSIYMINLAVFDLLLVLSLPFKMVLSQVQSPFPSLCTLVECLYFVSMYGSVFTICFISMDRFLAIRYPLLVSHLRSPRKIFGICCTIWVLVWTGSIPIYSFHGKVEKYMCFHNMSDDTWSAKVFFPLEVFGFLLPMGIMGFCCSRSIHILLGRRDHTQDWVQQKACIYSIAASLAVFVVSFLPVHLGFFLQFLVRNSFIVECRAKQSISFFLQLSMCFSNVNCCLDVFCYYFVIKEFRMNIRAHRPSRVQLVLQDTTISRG
In another assay the target is Mu-type opioid receptor (Homo sapiens, UniProt P35372). In words: SAR Analysis of Antagonists of the MOR Receptor using an Image-Based Assay - Set 3. [Related pubchem assays (depositor defined):AID1777, AID1785, AID1786, AID1966, AID2133, AID2136, AID2284, AID2285, AID2420]. Format: functional.
Mu-type opioid receptor, sequence (P35372 whole entry): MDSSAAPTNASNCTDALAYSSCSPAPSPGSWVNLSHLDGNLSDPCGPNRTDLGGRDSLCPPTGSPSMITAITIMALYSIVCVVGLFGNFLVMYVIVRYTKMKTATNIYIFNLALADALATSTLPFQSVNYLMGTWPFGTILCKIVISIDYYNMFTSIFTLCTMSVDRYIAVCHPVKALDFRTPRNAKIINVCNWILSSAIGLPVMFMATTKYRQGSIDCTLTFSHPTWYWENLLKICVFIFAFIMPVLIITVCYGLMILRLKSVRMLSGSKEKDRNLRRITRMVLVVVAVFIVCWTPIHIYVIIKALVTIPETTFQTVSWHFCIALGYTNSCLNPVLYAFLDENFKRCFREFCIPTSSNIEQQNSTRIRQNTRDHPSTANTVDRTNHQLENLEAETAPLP
Assay [9] deals with Delta-type opioid receptor (Homo sapiens, UniProt P41143). In words: SAR Analysis of Antagonists of the DOR Receptor using an Image-Based Assay - Set 3. [Related pubchem assays (depositor defined):AID1777, AID1785]. Format: functional.
Delta-type opioid receptor, sequence (P41143 whole entry): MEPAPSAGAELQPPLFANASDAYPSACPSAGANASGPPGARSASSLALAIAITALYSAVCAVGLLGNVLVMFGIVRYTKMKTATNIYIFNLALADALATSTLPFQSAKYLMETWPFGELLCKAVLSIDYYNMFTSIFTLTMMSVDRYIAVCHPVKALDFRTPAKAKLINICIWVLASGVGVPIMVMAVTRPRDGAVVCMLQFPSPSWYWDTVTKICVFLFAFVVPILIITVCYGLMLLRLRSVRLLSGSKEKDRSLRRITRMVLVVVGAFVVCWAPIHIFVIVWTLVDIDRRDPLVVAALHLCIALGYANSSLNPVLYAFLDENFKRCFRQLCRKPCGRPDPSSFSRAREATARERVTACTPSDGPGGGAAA
The target of assay [10] is T5, Kappa-type opioid receptor (Homo sapiens, UniProt P41145). In words: SAR analysis of small molecule antagonists of the kappa opioid receptor via a luminescent beta-arrestin assay - Set 3. [Related pubchem assays (depositor defined):AID1777, AID1778, AID1785, AID1786, AID1966, AID2133, AID2136, AID2285, AID2495]. It counts as functional.
T5 sequence (P41145 whole entry): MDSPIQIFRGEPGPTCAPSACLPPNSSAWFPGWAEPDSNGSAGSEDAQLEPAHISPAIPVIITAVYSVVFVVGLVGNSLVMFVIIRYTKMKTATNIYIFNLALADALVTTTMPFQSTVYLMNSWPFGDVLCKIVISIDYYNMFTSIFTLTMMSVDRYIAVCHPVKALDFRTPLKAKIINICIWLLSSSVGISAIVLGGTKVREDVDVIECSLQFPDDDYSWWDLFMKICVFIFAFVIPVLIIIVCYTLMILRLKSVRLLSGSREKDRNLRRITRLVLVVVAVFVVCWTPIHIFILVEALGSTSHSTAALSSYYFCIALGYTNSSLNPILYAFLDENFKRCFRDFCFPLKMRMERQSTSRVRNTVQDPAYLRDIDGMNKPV
Assay [11] deals with T5, Kappa-type opioid receptor. In words: SAR analysis of Antagonists of the Kappa Opioid Receptor (KOR) using an Image-Based Assay - Set 3. [Related pubchem assays (depositor defined):AID1777, AID1785]. Format: functional.
Assay [12] concerns the target DNA dC->dU-editing enzyme APOBEC-3A (Homo sapiens, UniProt P31941). In words: APOBEC3A DNA deaminase inhibitors, dose response, biochemical (AID 504722). It counts as functional.
Assay [13] concerns the target DNA dC->dU-editing enzyme APOBEC-3G (Homo sapiens, UniProt Q9HC16). In words: Dose Response confirmation of small molecule APOBEC3G DNA Deaminase Inhibitors via a fluorescence-based single-stranded DNA deaminase assay. [Related pubchem assays (depositor defined):AID493012, AID493028]. It counts as functional.
Assay [14] deals with T6, Rac GTPase-activating protein 1 (Homo sapiens, UniProt Q9H0H5).
T6 sequence (Q9H0H5 whole entry): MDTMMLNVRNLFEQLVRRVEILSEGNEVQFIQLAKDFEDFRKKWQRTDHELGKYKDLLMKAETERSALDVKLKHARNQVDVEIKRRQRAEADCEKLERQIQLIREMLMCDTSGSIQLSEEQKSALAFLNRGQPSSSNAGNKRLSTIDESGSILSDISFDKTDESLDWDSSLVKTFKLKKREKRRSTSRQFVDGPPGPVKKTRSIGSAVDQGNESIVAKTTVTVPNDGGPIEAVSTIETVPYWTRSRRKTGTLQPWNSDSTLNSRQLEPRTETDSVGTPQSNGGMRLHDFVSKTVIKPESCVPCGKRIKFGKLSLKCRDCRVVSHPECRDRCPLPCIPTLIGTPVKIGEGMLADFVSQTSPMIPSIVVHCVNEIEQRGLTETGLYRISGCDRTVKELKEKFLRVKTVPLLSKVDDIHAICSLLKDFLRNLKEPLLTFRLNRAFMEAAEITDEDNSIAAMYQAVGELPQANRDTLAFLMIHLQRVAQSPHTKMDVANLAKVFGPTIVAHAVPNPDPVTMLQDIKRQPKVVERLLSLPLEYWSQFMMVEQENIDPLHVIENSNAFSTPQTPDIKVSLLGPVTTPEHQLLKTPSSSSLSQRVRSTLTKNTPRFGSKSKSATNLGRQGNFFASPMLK
In words: MgcRacGAP GTPase-activating activity inhibitors, confirmation, biochemical, ADP Hunter fluorescence, primary and confirmatory (AID 624330). It counts as functional.

DNA dC->dU-editing enzyme APOBEC-3G, sequence (Q9HC16 whole entry): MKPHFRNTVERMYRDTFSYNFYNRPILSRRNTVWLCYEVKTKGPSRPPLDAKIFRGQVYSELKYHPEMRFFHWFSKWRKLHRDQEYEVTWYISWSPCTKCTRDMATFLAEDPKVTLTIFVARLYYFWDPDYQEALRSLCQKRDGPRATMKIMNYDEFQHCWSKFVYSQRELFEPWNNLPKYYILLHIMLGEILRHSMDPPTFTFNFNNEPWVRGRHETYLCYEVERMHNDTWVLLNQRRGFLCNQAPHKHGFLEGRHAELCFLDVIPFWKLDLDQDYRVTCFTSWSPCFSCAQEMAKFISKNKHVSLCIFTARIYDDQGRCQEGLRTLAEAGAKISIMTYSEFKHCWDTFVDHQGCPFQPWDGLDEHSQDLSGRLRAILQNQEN
DNA dC->dU-editing enzyme APOBEC-3A, sequence (P31941 whole entry): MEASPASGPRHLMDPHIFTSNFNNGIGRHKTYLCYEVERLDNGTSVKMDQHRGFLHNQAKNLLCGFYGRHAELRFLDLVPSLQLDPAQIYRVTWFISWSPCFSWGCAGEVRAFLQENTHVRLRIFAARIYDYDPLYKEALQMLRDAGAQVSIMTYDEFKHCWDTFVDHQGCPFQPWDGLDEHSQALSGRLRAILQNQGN

For the compound `N#CC1=C(N)C(C#N)(C#N)C(c2cccnc2)C2CC(c3ccccc3)CC=C12` (stereo not given), the EC50 in [1] is > 195 µM (not active); in assay [2], 4.73 µM (active). In addition, in the assay on HEK293, the AC50 was 10.5 µM (active).

Regarding `CCOCCCNC(=O)/C(C#N)=C/c1ccc(Cl)c([N+](=O)[O-])c1`, the EC50 at Integrin alpha-4 was > 90.8 µM (inactive). In addition, the AC50 in assay [3] is 7.38 µM (active); in the assay on A-375 [4], > 35 µM (active); with A-375 [5], > 35 µM (active). The CC50 in the assay on Vero was > 25 µM (active).

Take `O=C(COc1ccc(Cl)cc1)Nc1nnc(-c2ccc3ccccc3c2)o1`: in assay [6], the concentration for a half-maximal effect (EC50) is 10 µM (active).

As for `CC(=O)NCCc1nc2ccccc2n1Cc1ccc(C)cc1`, the EC50 at Caspase-3 and at Caspase-7 was > 85.2 µM (inactive) in each case.

`COC(=O)c1cnn(-c2ccccc2)c1/C=N/NC(=S)NC(C)(C)C`: the IC50 in assay [7] was 0.307 µM (active); in [8], 6.58 µM (active).

In the case of `CCc1ccc(S(=O)(=O)NCc2ccc(C(=O)NCCN(Cc3ccccc3)C(C)CC)cc2)cc1` (stereo not given), the IC50 on Mu-type opioid receptor is > 32 µM (inactive); in assay [9], > 32 µM (inactive); in assay [10] it was 1.42 µM (active); in [11], 0.47 µM (active).

Take `O=[N+]([O-])c1cccc(/C=N/n2c(S)nnc2-c2cccnc2)c1`: the IC50 was > 100 µM (inactive) in [12], 2.33 µM (active) in assay [13] and 31.9 µM (active) in [14].
